This is an account of results in patent publication EP0007398A1, “N-thio-N-methyl carbamic acid derivative, process for its preparation, its application and pesticides containing it” (priority 1978, dated 1980).

Structures are written as SMILES. Where two headings read alike, the source gives them in different places.

In series [1] the test system is Aedes aegypti, Gelbfiebermücke. The series can be described thus: Initial activity in water against larvae. In kind it is in vivo. To be noted: 168 h. The protocol:
Testinsekt: Aedes aegypti, Gelbfiebermücke Testmethode: Initialwirkung im Wasser
0,2 ml acetonische Wirkstofflösung werden mit 20 ml Leitungswasser gemischt. Pro Parzelle werden 10 Larven im letzten Larvenstadium angesetzt und bei 25°C und 60% rel. Feuchtigkeit inkubiert bis zum Schlüpfen der Adulten in den Kontrollparzellen. Unbehandeltc und mit Aceton behandelte Parzellen dienen als Kontrollen. Testdauer: 7 Tage. Die Wirkung wird ausgedrückt als prozentuale Reduktion der Zahl normaler Adulter im Vergleich zu den Kontrollparzellen.

In series [2] the test system is Leptinotarsa decemlineata, Kartoffelkäfer. The series is described as follows: Initial activity on potato leaf discs. Type of series: in vivo. To be noted: foliar, 96 h, read-out: % Wirkung. The protocol:
Testinsekt: Leptinotarsa decemlineata, Kartoffelkäfer Testmethode: Initialwirkung auf Blattrondellen
Kartoffelblattrondellen werden mit acetonischer Wirk- stofflösung besprüht. Pro Rondelle werden 5 frischgeschlüpfte Larven des ersten Stadiums angesetzt und bei 25°C und 60% rel. Feuchtigkeit inkubiert. Unbehandelte und mit Aceton behandelte Blattrondellen dienen als Kontrolle. Testdauer: 4 Tage. Die Resultate werden ausgedrückt als prozentuale Reduktion der Ueberlebensrate der Larven im Vergleich zu den Kontrollparzellen.

Series [3] in a line: Acute oral toxicity in the mouse. The conditions noted are these: in vivo, Maus, read-out: akute orale Toxizität. The protocol:
Die Verbindung wirkt als direktes Insektizid. Sie hat auch systemische Aktivität. Sie zeichnet sich unter Praxisbedingungen durch eine besonders günstige Wirkungsdauer aus. Die Verbindung ist ferner von Wert für die Bekämpfung von Schädlingen bei Tieren. So zeigt beispielsweise die Verbindung der Formel I in einer Konzentration von 10^-7 g/ml im Test gegen Aedes aegypti eine Wirkung von 100%. Die akute orale Toxizität an der Maus beträgt mehr als 1000 mg/kg.

The nature of another series: UV stability. In kind it is physicochemical. The conditions noted are these: qualitative statement.
A further series in a line: Water solubility. The conditions noted are these: qualitative statement. In kind it is physicochemical. The text has this: Die Verbindung der Formel I ist wasserunlöslich und kann nach irgendeiner der für unlösliche Verbindungen üblichen Methoden konfektioniert werden.
Series [4] relates to Leptinotarsa decemlineata, Kartoffelkäfer. The series is described as follows: Persistence test on treated potato plants (7 days at 30°C with UV irradiation before infestation). Type of series: in vivo. To be noted: 168 h, wettable powder per Beispiel 2, 7 days 30°C + UV, then 10 first-instar larvae per plant, reduction of survival rate vs control, read-out: % Wirkung. The protocol:
Testinsekt: Leptinotarsa decemlineata, Kartoffelkäfer Testmethode: Persistenztest
Kartoffelpflanzen werden bis zum Abtropfen behandelt. Nach dem Antrocknen werden die Pflanzen in einem Ecophyten bei 30°C und UV-Bestrahlung während 7 Tagen inkubiert. Nach der Inkubation werden pro Pflanze 10 Larven des ersten Stadiums angesetzt. Die Resultate werden ausgedrückt als prozentuale Reduktion der Ueberlebensrate der Leptinotarsa-Larven im Vergleich zu den Kontrollparzellen.
Die Formulierung der Wirkstoffe erfolgte gemäss Beispiel 2 ai = Wirkstoff

The subject of series [5] is Epilachna chrysomelina, Gurkenkäfer. The series can be described thus: Persistence test on treated pumpkin plants (7 days at 30°C with UV irradiation before infestation). Type of series: in vivo. The conditions noted are these: 168 h, wettable powder per Beispiel 2, 7 days 30°C + UV, then 10 first-instar larvae per plant, reduction of survival rate vs control, read-out: % Wirkung. Here is the method:
Testinsekt: Epilachna chrysomelina, Gurkenkäfer Testmethode: Persistenztest
Kürbispflanzen werden bis zum Abtropfen behandelt. Nach dem Antrocknen werden die Pflanzen in einem Ecophyten bei 30°C und UV-Bestrahlung während 7 Tagen inkubiert. Nach der Inkubation werden pro Pflanze 10 Larven des ersten Stadiums angesetzt. Die Resultate werden ausgedrückt als prozentuale Reduktion der Ueberlebensrate der Epilachna-Larven im Vergleich zu den Kontrollparzellen.
Die Formulierung der Wirkstoffe erfolgte gemäss Beispiel 2. ai = Wirkstoff

In the case of `CN(SN(C)C(=O)Oc1cccc2c1OC(C)(C)O2)C(=O)Oc1cccc2c1OC(C)(C)O2` [Formel I, Bis-[2,3-(isopropylidendioxy)-phenyl]-thio-bis-N-methylcarbamat], in series [1] (read-out: % Wirkung), the mortality at 0.01 µg/mL was found to be 13%, the mortality at 0.1 µg/mL came out at 100% and the mortality at 1 µg/mL turned out to be 100%. The mortality at 0.1 µg/mL in series [1] (read-out: Wirkung) is 100%. In addition, in series [2], the mortality at 1e-09 g/cm2 was determined as 0%, the mortality at 1e-08 g/cm2 amounted to 79% and the mortality at 1e-07 g/cm2 stood at 100%. In addition, in series [3], the LD50 is greater than 1000 mg/kg. Besides, the UV-Stabilität entry in the series “UV stability” is listed as “hohe UV-Stabilität”. Moreover, the Wasserlöslichkeit result in the series “Water solubility” was “wasserunlöslich”.

On to `CNC(=O)Oc1cccc2c1OC(C)(C)O2` [Formel II], for which the mortality at 1 µg/mL in series [1] (Dosis 10^-6 g ai/ml Wasser, last-instar larvae, 25°C, 7 days, reduction of number of normal adults vs control, read-out: % Wirkung) came out at 100%. Besides, the mortality at 0.1 µg/mL in series [1] (Dosis 10^-7 g ai/ml Wasser, last-instar larvae, 25°C, 7 days, reduction of number of normal adults vs control, read-out: % Wirkung) was 2%. The mortality at 0.01 µg/mL in series [1] (Dosis 10^-8 g ai/ml Wasser, last-instar larvae, 25°C, 7 days, reduction of number of normal adults vs control, read-out: % Wirkung) was 0%. Besides, the mortality at 1e-07 g/cm2 in series [2] (Dosis 10^-7 g ai/cm^2, acetone solution, first-instar larvae, 25°C, 60% rel. humidity, 4 days, reduction of survival rate vs control) was 100%. Also, in series [2] (Dosis 10^-8 g ai/cm^2, acetone solution, first-instar larvae, 25°C, 60% rel. humidity, 4 days, reduction of survival rate vs control), the mortality at 1e-08 g/cm2 was 8%. The mortality at 1e-09 g/cm2 in series [2] (Dosis 10^-9 g ai/cm^2, acetone solution, first-instar larvae, 25°C, 60% rel. humidity, 4 days, reduction of survival rate vs control) turned out to be 0%. For the same compound, the mortality at 0.01 % in series [4] (Konz. 0,01 % ai) was 5%; in series [5] (Konz. 0,01 % ai), 30%. In addition, the figures for the mortality at 0.03 % in series [4] (Konz. 0,03 % ai) and in series [5] (Konz. 0,03 % ai) were 95% and 100%, respectively.
